Patent US20100130436A1, “CO-ADMINISTRATION OF RANOLAZINE AND CARDIAC GLYCOSIDES” (priority 2008, published 2010)

Test system: late sodium current (late INa)
Assay: Whole-cell patch-clamp of late INa in isolated ventricular myocytes
Type: cell-based, guinea pig
Conditions: for effect of ouabain (1 μmol/L) to increase late INa: FIG. 10, intracellular KN-93 10 μmol/L, EGTA 1 mmol/L, KN-92 10 μmol/L; for late INa at the end of a 10-min exposure to ouabain / increase of late INa at the end of a 10-min exposure to ouabain: ouabain 1 μmol/L
[1] = agent 10 μmol/L intracellular via patch pipette

| SMILES | effect of ouabain (1 μmol/L) to increase late INa | late INa at the end of a 10-min exposure to ouabain (EGTA 1 mmol/L in patch pipette, from 23±3, n=6) | increase of late INa at the end of a 10-min exposure to ouabain (EGTA 1 mmol/L in patch pipette, n=6) | increase of late INa at the end of a 10-min exposure to ouabain [1] | late INa at the end of a 10-min exposure to ouabain [1] |
| --- | --- | --- | --- | --- | --- |
| O=C(O)CN(CCOCCOCCN(CC(=O)O)CC(=O)O)CC(=O)O [EGTA] | attenuated | 31±8 pC/pF | 33±28% | – | – |
| COc1ccc(S(=O)(=O)Nc2ccccc2CN(C)C/C=C/c2ccc(Cl)cc2)cc1 [KN-92] | not | – | – | 273±39% | 72±7 pC/pF |
| COc1ccc(S(=O)(=O)N(CCO)c2ccccc2CN(C)C/C=C/c2ccc(Cl)cc2)cc1 [KN-93] | attenuated | – | – | 76±35% | 33±6 pC/pF |
